In the assay the target is Tyrosine-protein kinase BTK (Homo sapiens, UniProt Q06187). The assay can be described thus: Biochemical Assay: A generalized procedure for a standard biochemical Btk Kinase Assay that can be used to test Formula I compounds is as follows. A master mix minus Btk enzyme is prepared containing IX Cell Signaling kinase buffer (25 mM Tris-HCl, pH 7.5, 5 mM beta- glycerophosphate, 2 mM dithiothreitol, 0.1 mM Na3V04, 10 mM MgCl2), 0.5 ul Promega PTK Biotinylated peptide substrate 2, and 0.01% BSA. A master mix plus Btk enzyme is prepared containing IX Cell Signaling kinase buffer, 0.5 ul PTK Biotinylated peptide substrate 2, 0.01% BSA, and 100 ng/well (0.06 mU/well) Btk enzyme. Btk enzyme is prepared as follows: full length human wildtype Btk (accession number NM-000061) with a C-terminal V5 and 6x His tag was subcloned into pFastBac vector for making baculo virus carrying this epitope-tagged Btk. Generation of baculovirus is done based on Invitrogen's instructions detailed in its published protocol "Bac-to-Bac Baculovirus Expression Systems".
Tyrosine-protein kinase BTK, sequence (Q06187 whole entry): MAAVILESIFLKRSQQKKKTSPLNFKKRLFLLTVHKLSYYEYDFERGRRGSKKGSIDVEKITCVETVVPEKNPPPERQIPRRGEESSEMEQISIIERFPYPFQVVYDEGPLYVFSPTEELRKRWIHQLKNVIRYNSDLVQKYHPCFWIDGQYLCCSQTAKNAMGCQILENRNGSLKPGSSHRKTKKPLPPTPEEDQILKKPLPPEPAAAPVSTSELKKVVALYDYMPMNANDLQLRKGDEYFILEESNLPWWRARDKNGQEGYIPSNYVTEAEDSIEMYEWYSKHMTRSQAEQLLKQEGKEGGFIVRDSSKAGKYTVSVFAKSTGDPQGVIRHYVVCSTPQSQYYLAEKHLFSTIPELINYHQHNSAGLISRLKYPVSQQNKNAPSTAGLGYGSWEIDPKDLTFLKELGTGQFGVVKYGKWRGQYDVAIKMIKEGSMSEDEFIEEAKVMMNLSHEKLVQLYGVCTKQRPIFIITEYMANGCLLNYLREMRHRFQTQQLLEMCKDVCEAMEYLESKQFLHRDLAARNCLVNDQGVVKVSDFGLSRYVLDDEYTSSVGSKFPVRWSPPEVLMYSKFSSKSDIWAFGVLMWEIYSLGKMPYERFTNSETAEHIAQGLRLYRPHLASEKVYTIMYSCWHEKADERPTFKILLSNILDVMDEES

From ChEMBL document CHEMBL3638757, “Pyridazinones, method of making, and method of use thereof” (2015) come the findings set out here.

SMILES strings stand for the structures.

As usually defined, the IC50 is the concentration needed to halve the response being measured. In the case of `Cc1cc(Nc2cc(-c3ccc(F)c(N4Cc5cc(C(C)(C)C)sc5C4=O)c3)n[nH]c2=O)nn1C`, the IC50 is 9 nM.
